Reference: the supplement of paper PMC10307832

Key:
Experiment in all cases: relative viability (nuclei count vs DMSO), 5 days (fraction); higher = more cells survive
[1] = test system: NCI-H441
Method in brief: (§1)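 Medians of duplicate plates are given as relative viability. That measure is the nuclei count in treated wells divided by the count in vehicle wells. Counts were taken on 4× images of lung cancer cell lines in 1536-well plates, 5 days after pin-tool dosing the day after seeding with one drug alone or a fixed anchor-drug dose plus five library-drug doses (not always all listed) in √10 steps.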

[2] = test system: NCI-H322M
Method in brief: as §1

[3] = test system: NCI-H2347
Method in brief: as §1

[4] = test system: RERF-LC-KJ
Method in brief: as §1

[5] = test system: NCI-H358
Method in brief: as §1

[6] = test system: NCI-H2228
Method in brief: as §1

[7] = test system: LCLC-103H
Method in brief: as §1

[8] = test system: NCI-H1755
Method in brief: as §1

[9] = test system: NCI-H23
Method in brief: as §1

[10] = test system: HCC-827
Method in brief: as §1

[11] = test system: NCI-H1793
Method in brief: as §1

[12] = test system: ChaGo-K-1
Method in brief: as §1

[13] = test system: PC-3 [JPC-3]
Method in brief: as §1

[14] = test system: HOP-62
Method in brief: as §1

[15] = test system: SW 900
Method in brief: as §1

[16] = test system: LXF-289
Method in brief: as §1

[17] = test system: NCI-H1395
Method in brief: as §1

[18] = test system: NCI-H596
Method in brief: as §1

[19] = test system: NCI-H2170
Method in brief: as §1

[20] = test system: NCI-H2126
Method in brief: as §1

[21] = test system: NCI-H647
Method in brief: as §1

[22] = test system: NCI-H650
Method in brief: as §1

[23] = test system: EPLC-272H
Method in brief: as §1

[24] = test system: NCI-H1651
Method in brief: as §1

[25] = test system: LOU-NH91
Method in brief: as §1

Question: Which relative viability ([1]; first compound 0.253 µM) does the source give for `Nc1cccc2c1CN(C1CCC(=O)NC1=O)C2=O` (stereo unspecified) [Lenalidomide] + Cc1cc(Nc2cc(N3CCN(C)CC3)nc(Sc3ccc(NC(=O)C4CC4)cc3)n2)n[nH]1 [Tozasertib] (partner 0.1 µM) here?
Answer: 0.72

Question: And the relative viability ([1]; first compound 0.8 µM)?
Answer: 0.572

Question: And the relative viability ([1]; first compound 2.53 µM)?
Answer: 0.621

Question: And the relative viability ([1]; first compound 8 µM)?
Answer: 0.522

Question: And the relative viability ([2]; first compound 0.253 µM)?
Answer: 0.471

Question: What about the relative viability ([2]; first compound 0.8 µM) of the same molecule?
Answer: 0.566

Question: What about the relative viability ([2]; first compound 2.53 µM) of the same molecule?
Answer: 0.49

Question: What about the relative viability ([2]; first compound 8 µM) of the same molecule?
Answer: 0.439

Question: And the relative viability ([3]; first compound 0.253 µM)?
Answer: 0.633

Question: And the relative viability ([3]; first compound 0.8 µM)?
Answer: 0.414

Question: What about the relative viability ([3]; first compound 2.53 µM) of the same molecule?
Answer: 0.643

Question: And the relative viability ([3]; first compound 8 µM)?
Answer: 0.599

Question: What about the relative viability ([4]; first compound 0.253 µM) of the same molecule?
Answer: 0.507

Question: What about the relative viability ([4]; first compound 0.8 µM) of the same molecule?
Answer: 0.566

Question: And the relative viability ([4]; first compound 2.53 µM)?
Answer: 0.515

Question: And the relative viability ([4]; first compound 8 µM)?
Answer: 0.568

Question: What about the relative viability ([5]; first compound 0.253 µM) of the same molecule?
Answer: 0.12

Question: What about the relative viability ([5]; first compound 0.8 µM) of the same molecule?
Answer: 0.107

Question: And the relative viability ([5]; first compound 2.53 µM)?
Answer: 0.103

Question: And the relative viability ([5]; first compound 8 µM)?
Answer: 0.0989

Question: And the relative viability ([6]; first compound 0.253 µM)?
Answer: 0.288

Question: And the relative viability ([6]; first compound 0.8 µM)?
Answer: 0.338

Question: What about the relative viability ([6]; first compound 2.53 µM) of the same molecule?
Answer: 0.283

Question: And the relative viability ([6]; first compound 8 µM)?
Answer: 0.345

Question: What about the relative viability ([7]; first compound 0.253 µM) of the same molecule?
Answer: 0.47

Question: What about the relative viability ([7]; first compound 0.8 µM) of the same molecule?
Answer: 0.517

Question: And the relative viability ([7]; first compound 2.53 µM)?
Answer: 0.644

Question: And the relative viability ([7]; first compound 8 µM)?
Answer: 0.566

Question: And the relative viability ([8]; first compound 0.253 µM)?
Answer: 0.638

Question: What about the relative viability ([8]; first compound 0.8 µM) of the same molecule?
Answer: 0.614

Question: And the relative viability ([8]; first compound 2.53 µM)?
Answer: 0.597

Question: And the relative viability ([8]; first compound 8 µM)?
Answer: 0.541

Question: What about the relative viability ([9]; first compound 0.253 µM) of the same molecule?
Answer: 0.438

Question: What about the relative viability ([9]; first compound 0.8 µM) of the same molecule?
Answer: 0.343

Question: What about the relative viability ([9]; first compound 2.53 µM) of the same molecule?
Answer: 0.723

Question: What about the relative viability ([9]; first compound 8 µM) of the same molecule?
Answer: 0.405

Question: What about the relative viability ([10]; first compound 0.253 µM) of the same molecule?
Answer: 0.47

Question: And the relative viability ([10]; first compound 0.8 µM)?
Answer: 0.41

Question: What about the relative viability ([10]; first compound 2.53 µM) of the same molecule?
Answer: 0.455

Question: And the relative viability ([10]; first compound 8 µM)?
Answer: 0.462

Question: What about the relative viability ([11]; first compound 0.253 µM) of the same molecule?
Answer: 0.356

Question: What about the relative viability ([11]; first compound 2.53 µM) of the same molecule?
Answer: 0.383

Question: And the relative viability ([11]; first compound 8 µM)?
Answer: 0.349

Question: And the relative viability ([12]; first compound 0.253 µM)?
Answer: 0.242

Question: And the relative viability ([12]; first compound 0.8 µM)?
Answer: 0.228

Question: And the relative viability ([12]; first compound 2.53 µM)?
Answer: 0.249

Question: And the relative viability ([12]; first compound 8 µM)?
Answer: 0.231

Question: What about the relative viability ([13]; first compound 0.253 µM) of the same molecule?
Answer: 0.909

Question: And the relative viability ([13]; first compound 0.8 µM)?
Answer: 0.899

Question: What about the relative viability ([13]; first compound 2.53 µM) of the same molecule?
Answer: 1.03

Question: And the relative viability ([13]; first compound 8 µM)?
Answer: 0.955

Question: What about the relative viability ([14]; first compound 0.253 µM) of the same molecule?
Answer: 0.359

Question: And the relative viability ([14]; first compound 0.8 µM)?
Answer: 0.41

Question: And the relative viability ([14]; first compound 2.53 µM)?
Answer: 0.352

Question: And the relative viability ([14]; first compound 8 µM)?
Answer: 0.405

Question: What about the relative viability ([15]; first compound 0.253 µM) of the same molecule?
Answer: 0.544

Question: What about the relative viability ([15]; first compound 2.53 µM) of the same molecule?
Answer: 0.635

Question: And the relative viability ([15]; first compound 8 µM)?
Answer: 0.616

Question: What about the relative viability ([16]; first compound 0.253 µM) of the same molecule?
Answer: 0.206

Question: And the relative viability ([16]; first compound 0.8 µM)?
Answer: 0.191

Question: What about the relative viability ([16]; first compound 2.53 µM) of the same molecule?
Answer: 0.25

Question: What about the relative viability ([16]; first compound 8 µM) of the same molecule?
Answer: 0.229

Question: And the relative viability ([17]; first compound 0.253 µM)?
Answer: 0.692

Question: And the relative viability ([17]; first compound 0.8 µM)?
Answer: 0.753

Question: And the relative viability ([17]; first compound 2.53 µM)?
Answer: 0.818

Question: And the relative viability ([17]; first compound 8 µM)?
Answer: 0.678

Question: What about the relative viability ([18]; first compound 0.253 µM) of the same molecule?
Answer: 0.755

Question: And the relative viability ([18]; first compound 2.53 µM)?
Answer: 0.904

Question: And the relative viability ([18]; first compound 8 µM)?
Answer: 0.774

Question: What about the relative viability ([19]; first compound 0.253 µM) of the same molecule?
Answer: 0.612

Question: And the relative viability ([19]; first compound 0.8 µM)?
Answer: 0.608

Question: What about the relative viability ([19]; first compound 2.53 µM) of the same molecule?
Answer: 0.747

Question: What about the relative viability ([19]; first compound 8 µM) of the same molecule?
Answer: 0.753

Question: What about the relative viability ([20]; first compound 0.253 µM) of the same molecule?
Answer: 0.873

Question: And the relative viability ([20]; first compound 0.8 µM)?
Answer: 0.817

Question: And the relative viability ([20]; first compound 2.53 µM)?
Answer: 0.82

Question: What about the relative viability ([20]; first compound 8 µM) of the same molecule?
Answer: 0.737

Question: What about the relative viability ([21]; first compound 0.253 µM) of the same molecule?
Answer: 0.339

Question: What about the relative viability ([21]; first compound 0.8 µM) of the same molecule?
Answer: 0.27

Question: And the relative viability ([21]; first compound 2.53 µM)?
Answer: 0.26

Question: What about the relative viability ([21]; first compound 8 µM) of the same molecule?
Answer: 0.355

Question: What about the relative viability ([22]; first compound 0.253 µM) of the same molecule?
Answer: 0.795

Question: What about the relative viability ([22]; first compound 2.53 µM) of the same molecule?
Answer: 0.869

Question: What about the relative viability ([22]; first compound 8 µM) of the same molecule?
Answer: 0.714

Question: What about the relative viability ([23]; first compound 0.253 µM) of the same molecule?
Answer: 0.343

Question: And the relative viability ([23]; first compound 0.8 µM)?
Answer: 0.229

Question: And the relative viability ([23]; first compound 2.53 µM)?
Answer: 0.349

Question: And the relative viability ([23]; first compound 8 µM)?
Answer: 0.256

Question: And the relative viability ([24]; first compound 0.253 µM)?
Answer: 0.749

Question: And the relative viability ([24]; first compound 0.8 µM)?
Answer: 0.772

Question: What about the relative viability ([24]; first compound 2.53 µM) of the same molecule?
Answer: 0.819

Question: What about the relative viability ([24]; first compound 8 µM) of the same molecule?
Answer: 0.815

Question: And the relative viability ([25]; first compound 0.253 µM)?
Answer: 0.715

Question: And the relative viability ([25]; first compound 0.8 µM)?
Answer: 0.737

Question: And the relative viability ([25]; first compound 2.53 µM)?
Answer: 0.715

Question: What about the relative viability ([25]; first compound 8 µM) of the same molecule?
Answer: 0.73
